In patent US20240150360A1 (THE REGENTS OF THE UNIVERSITY OF MICHIGAN, priority 2021, published 2024):

Key:
CBP = molecular target: T1, CBP (Homo sapiens, UniProt Q92793); experiment: CBP degradation in 22Rv1 cells (5 h); type: cell-based; details: 22Rv1 cells, 5 h; for Dmax: 22Rv1, 5 h, read-out: CBP Degradation (22Rv1, 5 h) DCmax
T1 construct: endogenous in cells; host or cells: 22Rv1 (ATCC CRL-2505) human prostate cancer cells
Description: (§1) Biological Assays. […] Cells with 3-8 passages after purchase were used in experiments.

P300 = molecular target: T2, P300 (Homo sapiens, UniProt Q09472); experiment: P300 degradation in 22Rv1 cells (5 h); type: cell-based; details: 22Rv1 cells, 5 h; for Dmax: read-out: P300 Degradation (22Rv1, 5 h) DCmax
T2 construct: endogenous in cells; host or cells: 22Rv1 (ATCC CRL-2505) human prostate cancer cells
T2 sequence (Q09472 whole entry): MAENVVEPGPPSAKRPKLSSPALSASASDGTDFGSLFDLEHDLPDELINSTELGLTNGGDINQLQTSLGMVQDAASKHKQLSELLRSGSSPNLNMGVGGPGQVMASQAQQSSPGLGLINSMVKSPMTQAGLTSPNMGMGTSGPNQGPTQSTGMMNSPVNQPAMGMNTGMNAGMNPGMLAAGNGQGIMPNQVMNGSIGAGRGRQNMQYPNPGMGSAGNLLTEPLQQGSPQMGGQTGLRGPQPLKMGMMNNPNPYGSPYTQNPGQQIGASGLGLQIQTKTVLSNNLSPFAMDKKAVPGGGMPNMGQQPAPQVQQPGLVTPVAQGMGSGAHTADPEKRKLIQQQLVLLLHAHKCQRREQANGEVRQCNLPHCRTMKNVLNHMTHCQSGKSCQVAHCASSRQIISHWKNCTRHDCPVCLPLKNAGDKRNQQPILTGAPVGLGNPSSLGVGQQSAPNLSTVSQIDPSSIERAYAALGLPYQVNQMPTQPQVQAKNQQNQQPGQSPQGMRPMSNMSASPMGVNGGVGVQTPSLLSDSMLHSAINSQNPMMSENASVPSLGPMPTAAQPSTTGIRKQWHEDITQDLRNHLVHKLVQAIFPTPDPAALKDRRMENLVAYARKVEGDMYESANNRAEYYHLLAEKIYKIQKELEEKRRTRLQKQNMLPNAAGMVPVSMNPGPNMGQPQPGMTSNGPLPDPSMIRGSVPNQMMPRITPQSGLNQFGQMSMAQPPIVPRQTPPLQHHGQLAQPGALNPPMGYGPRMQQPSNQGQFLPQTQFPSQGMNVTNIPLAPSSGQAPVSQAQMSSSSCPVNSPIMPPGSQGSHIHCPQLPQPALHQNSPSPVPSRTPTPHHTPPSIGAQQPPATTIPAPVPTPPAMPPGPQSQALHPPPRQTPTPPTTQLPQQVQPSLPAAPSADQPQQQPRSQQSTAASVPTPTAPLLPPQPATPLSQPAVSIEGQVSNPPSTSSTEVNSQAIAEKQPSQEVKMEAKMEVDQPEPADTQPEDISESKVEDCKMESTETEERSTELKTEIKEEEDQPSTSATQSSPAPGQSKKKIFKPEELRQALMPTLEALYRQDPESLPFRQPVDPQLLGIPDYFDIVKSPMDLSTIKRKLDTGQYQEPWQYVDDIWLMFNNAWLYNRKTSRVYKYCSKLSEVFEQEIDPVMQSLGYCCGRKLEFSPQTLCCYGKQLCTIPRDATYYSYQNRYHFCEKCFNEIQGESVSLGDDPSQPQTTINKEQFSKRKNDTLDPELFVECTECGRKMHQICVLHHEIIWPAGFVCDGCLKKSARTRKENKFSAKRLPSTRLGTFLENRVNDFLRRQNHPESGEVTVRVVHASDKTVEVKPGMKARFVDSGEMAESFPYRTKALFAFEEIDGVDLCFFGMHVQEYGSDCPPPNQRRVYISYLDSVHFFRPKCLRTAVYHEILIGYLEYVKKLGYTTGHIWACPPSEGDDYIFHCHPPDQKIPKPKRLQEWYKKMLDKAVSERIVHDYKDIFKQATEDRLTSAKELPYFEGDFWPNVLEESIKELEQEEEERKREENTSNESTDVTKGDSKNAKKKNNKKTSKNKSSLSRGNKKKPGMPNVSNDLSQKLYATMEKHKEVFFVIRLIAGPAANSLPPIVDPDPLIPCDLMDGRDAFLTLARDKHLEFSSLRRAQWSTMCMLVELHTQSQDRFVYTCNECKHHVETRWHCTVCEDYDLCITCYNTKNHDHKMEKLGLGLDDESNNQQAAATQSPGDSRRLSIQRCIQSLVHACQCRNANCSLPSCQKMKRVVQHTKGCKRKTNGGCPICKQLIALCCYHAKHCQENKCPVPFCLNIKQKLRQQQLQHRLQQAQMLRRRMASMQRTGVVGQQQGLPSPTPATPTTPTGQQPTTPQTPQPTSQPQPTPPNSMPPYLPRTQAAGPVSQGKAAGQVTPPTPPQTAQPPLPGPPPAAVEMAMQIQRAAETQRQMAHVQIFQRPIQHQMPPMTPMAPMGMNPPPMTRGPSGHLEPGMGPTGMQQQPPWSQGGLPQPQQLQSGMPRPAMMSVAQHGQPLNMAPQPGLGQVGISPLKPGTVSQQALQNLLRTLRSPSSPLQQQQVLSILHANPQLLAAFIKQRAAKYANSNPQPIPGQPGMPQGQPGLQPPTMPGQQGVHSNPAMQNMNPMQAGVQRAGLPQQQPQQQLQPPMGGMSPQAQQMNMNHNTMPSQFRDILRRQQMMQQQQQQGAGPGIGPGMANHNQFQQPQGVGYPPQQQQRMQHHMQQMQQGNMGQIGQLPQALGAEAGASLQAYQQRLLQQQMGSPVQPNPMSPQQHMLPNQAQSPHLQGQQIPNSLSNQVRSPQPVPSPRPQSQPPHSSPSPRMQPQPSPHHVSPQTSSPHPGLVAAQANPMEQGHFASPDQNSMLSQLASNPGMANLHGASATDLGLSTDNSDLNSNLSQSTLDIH
Description: as §1

22Rv1 cells = experiment: Cell growth inhibition assay (CellTiter-Glo) in 22Rv1; type: cell-based, human; details: Homo sapiens, 22Rv1, 96 h, 22Rv1 cells, 96 h incubation; read-out: Cell Growth Inhibition (IC50) 22Rv1
In short: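 22Rv1 prostate cancer cells (passages 3-8, DMEM with 10% FBS) were seeded at 4000 cells/well with compound, 3-fold dilutions from 10 μM final. After 96 h at 37° C and 5% CO2, growth was read by CellTiter-Glo 2.0 luminescence.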

HL60 = experiment: Cell growth inhibition in HL60; type: cell-based; details: Homo sapiens, HL-60, HL60 cells; read-out: Cell Growth Inhibition (IC50) HL60

T1 sequence (Q92793 whole entry): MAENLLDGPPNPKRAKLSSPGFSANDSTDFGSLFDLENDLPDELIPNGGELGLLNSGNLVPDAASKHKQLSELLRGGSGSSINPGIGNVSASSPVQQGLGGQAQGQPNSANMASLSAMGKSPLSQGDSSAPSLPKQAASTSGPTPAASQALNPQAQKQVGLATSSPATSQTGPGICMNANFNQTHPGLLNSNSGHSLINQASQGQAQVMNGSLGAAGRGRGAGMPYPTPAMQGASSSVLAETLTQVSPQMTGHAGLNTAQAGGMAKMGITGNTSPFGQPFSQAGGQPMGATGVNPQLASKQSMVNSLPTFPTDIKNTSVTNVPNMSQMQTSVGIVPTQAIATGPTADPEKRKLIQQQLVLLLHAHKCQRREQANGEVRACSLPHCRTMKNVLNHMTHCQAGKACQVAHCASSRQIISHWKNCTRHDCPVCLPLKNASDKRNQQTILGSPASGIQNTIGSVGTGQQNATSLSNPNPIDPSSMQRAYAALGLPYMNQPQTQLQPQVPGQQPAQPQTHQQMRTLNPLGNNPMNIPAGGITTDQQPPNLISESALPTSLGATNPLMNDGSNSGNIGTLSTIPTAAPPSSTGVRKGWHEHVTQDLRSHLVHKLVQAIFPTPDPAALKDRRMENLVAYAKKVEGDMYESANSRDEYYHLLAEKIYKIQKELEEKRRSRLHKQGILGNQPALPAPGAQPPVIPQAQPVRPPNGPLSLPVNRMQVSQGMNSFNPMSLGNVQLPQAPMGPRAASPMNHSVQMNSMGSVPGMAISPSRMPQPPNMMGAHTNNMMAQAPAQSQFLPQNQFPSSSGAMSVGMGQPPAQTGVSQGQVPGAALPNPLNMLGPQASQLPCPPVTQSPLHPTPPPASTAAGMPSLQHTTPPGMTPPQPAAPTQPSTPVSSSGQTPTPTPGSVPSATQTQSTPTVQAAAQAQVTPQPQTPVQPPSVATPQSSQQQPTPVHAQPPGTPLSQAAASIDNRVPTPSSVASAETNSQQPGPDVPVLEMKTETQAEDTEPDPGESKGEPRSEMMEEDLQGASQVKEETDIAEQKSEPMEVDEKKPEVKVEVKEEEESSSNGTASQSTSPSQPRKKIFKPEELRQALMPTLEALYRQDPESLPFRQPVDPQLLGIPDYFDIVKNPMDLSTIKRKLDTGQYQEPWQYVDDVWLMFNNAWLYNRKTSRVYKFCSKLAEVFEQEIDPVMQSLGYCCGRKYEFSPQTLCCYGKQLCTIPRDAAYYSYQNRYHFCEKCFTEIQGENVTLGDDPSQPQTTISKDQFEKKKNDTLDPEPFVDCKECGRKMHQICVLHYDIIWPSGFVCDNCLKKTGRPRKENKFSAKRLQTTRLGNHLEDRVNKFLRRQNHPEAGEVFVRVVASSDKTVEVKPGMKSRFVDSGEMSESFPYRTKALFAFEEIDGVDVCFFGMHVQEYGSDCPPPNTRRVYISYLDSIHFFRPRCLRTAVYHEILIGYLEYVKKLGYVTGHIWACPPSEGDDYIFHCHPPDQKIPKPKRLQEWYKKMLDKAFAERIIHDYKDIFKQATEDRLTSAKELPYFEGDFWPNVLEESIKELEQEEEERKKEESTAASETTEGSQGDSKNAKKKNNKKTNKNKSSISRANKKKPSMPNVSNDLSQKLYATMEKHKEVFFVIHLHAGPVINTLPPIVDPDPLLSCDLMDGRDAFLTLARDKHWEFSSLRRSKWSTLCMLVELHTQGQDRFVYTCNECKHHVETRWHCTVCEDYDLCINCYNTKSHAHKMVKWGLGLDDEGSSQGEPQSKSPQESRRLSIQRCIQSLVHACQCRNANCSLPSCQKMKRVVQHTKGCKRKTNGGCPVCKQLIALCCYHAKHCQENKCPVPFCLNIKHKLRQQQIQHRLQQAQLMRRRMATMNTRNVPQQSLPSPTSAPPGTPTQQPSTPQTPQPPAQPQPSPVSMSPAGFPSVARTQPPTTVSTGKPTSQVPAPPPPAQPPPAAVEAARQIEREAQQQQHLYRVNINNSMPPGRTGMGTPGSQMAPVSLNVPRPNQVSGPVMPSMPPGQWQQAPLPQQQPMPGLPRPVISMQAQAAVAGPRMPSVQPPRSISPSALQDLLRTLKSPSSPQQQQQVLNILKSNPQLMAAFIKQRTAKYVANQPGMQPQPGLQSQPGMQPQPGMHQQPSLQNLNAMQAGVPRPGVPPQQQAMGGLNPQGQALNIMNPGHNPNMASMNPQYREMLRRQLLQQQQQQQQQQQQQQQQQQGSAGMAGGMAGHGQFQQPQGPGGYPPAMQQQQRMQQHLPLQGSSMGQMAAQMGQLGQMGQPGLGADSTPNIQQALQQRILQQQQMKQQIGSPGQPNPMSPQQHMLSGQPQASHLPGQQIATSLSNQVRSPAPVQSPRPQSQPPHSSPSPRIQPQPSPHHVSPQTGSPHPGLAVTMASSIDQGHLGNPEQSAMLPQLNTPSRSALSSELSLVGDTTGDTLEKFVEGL

| Structure (SMILES) | Dmax (CBP) [%] | DC50 (CBP) [nM] | DC50 (P300) [nM] | Dmax (P300) [%] | IC50 (22Rv1 cells) [nM] | IC50 (HL60) [nM] |
| --- | --- | --- | --- | --- | --- | --- |
| CC(=O)N1CCc2c(c(N3CCCc4cc(-c5cccs5)c(C(F)F)cc43)nn2C2CCN(C(=O)CN3Cc4cc5c(cc4C3)C(=O)N(C3CCC(=O)NC3=O)C5=O)CC2)C1 (stereo not drawn) [CP-024, 6-(2-(4-(5-acetyl-3-(7-(difluoromethyl)-6-(thiophen-2-yl)-3,4-dihydroquinolin-1(2H)-yl)-4,5,6,7-tetrahydro-1H-pyrazolo[4,3-c]pyridin-1-yl)piperidin-1-yl)-2-oxoethyl)-2-(2,6-dioxopiperidin-3-yl)-6,7-dihydropyrrolo[3,4-f]isoindole-1,3(2H,5H)-dione] | > 90 | < 10 | < 10 | > 70 | < 1000 | < 100 |
| Cc1noc(C)c1-c1ccc2c(c1)nc([C@@H]1CCCC(=O)N1c1ccc(F)c(F)c1)n2C1CCN(C(=O)CCN2Cc3cc4c(cc3C2)C(=O)N(C2CCC(=O)NC2=O)C4=O)CC1 (stereo partly drawn) [CP-065, 6-(3-(4-(2-((S)-1-(3,4-difluorophenyl)-6-oxopiperidin-2-yl)-5-(3,5-dimethylisoxazol-4-yl)-1H-benzo[d]imidazol-1-yl)piperidin-1-yl)-3-oxopropyl)-2-(2,6-dioxopiperidin-3-yl)-6,7-dihydropyrrolo[3,4-f]isoindole-1,3(2H,5H)-dione] | < 50 | > 1000 | > 1000 | < 50 | > 10000 | > 10000 |
| CC(=O)N1CCc2c(c(N3CCCc4cc(-c5cnn(C)c5)c(C(F)F)cc43)nn2C2CCC(C(C)CN3Cc4cc5c(cc4C3)C(=O)N(C3CCC(=O)NC3=O)C5=O)CC2)C1 (stereo not drawn) [CP-051, 6-(2-(4-(5-acetyl-3-(7-(difluoromethyl)-6-(1-methyl-1H-pyrazol-4-yl)-3,4-dihydroquinolin-1(2H)-yl)-4,5,6,7-tetrahydro-1H-pyrazolo[4,3-c]pyridin-1-yl)cyclohexyl)propyl)-2-(2,6-dioxopiperidin-3-yl)-6,7-dihydropyrrolo[3,4-f]isoindole-1,3(2H,5H)-dione] | > 90 | < 10 | < 10 | > 90 | < 100 | < 100 |
| Cn1cc(-c2cc3c(cc2C(F)F)N(c2nn(C4CCN(C(=O)CN5Cc6cc7c(cc6C5)C(=O)N(C5CCC(=O)NC5=O)C7=O)CC4)c4c2CNCC4)CCC3)cn1 (stereo not drawn) [CP-057, 6-(2-(4-(3-(7-(difluoromethyl)-6-(1-methyl-1H-pyrazol-4-yl)-3,4-dihydroquinolin-1(2H)-yl)-4,5,6,7-tetrahydro-1H-pyrazolo[4,3-c]pyridin-1-yl)piperidin-1-yl)-2-oxoethyl)-2-(2,6-dioxopiperidin-3-yl)-6,7-dihydropyrrolo[3,4-f]isoindole-1,3(2H,5H)-dione] | < 50 | > 1000 | > 1000 | < 50 | > 10000 | > 10000 |
| CC(=O)N1CCc2c(c(N3CCCc4cc(C)c(C(F)F)cc43)nn2C2CCN(C(=O)CN3Cc4cc5c(cc4C3)C(=O)N(C3CCC(=O)NC3=O)C5=O)CC2)C1 (stereo not drawn) [CP-011, 6-(2-(4-(5-acetyl-3-(7-(difluoromethyl)-6-methyl-3,4-dihydroquinolin-1(2H)-yl)-4,5,6,7-tetrahydro-1H-pyrazolo[4,3-c]pyridin-1-yl)piperidin-1-yl)-2-oxoethyl)-2-(2,6-dioxopiperidin-3-yl)-6,7-dihydropyrrolo[3,4-f]isoindole-1,3(2H,5H)-dione] | > 90 | < 10 | < 10 | > 70 | < 1000 | < 1000 |
| Cn1cc(-c2cc3c(cc2C(F)F)N(c2nn(C4CCN(C(=O)CN5Cc6cc7c(cc6C5)C(=O)N(C5CCC(=O)NC5=O)C7=O)CC4)c4c2CN(CC(F)F)CC4)CCC3)cn1 (stereo not drawn) [CP-058, 6-(2-(4-(5-(2,2-difluoroethyl)-3-(7-(difluoromethyl)-6-(1-methyl-1H-pyrazol-4-yl)-3,4-dihydroquinolin-1(2H)-yl)-4,5,6,7-tetrahydro-1H-pyrazolo[4,3-c]pyridin-1-yl)piperidin-1-yl)-2-oxoethyl)-2-(2,6-dioxopiperidin-3-yl)-6,7-dihydropyrrolo[3,4-f]isoindole-1,3(2H,5H)-dione] | < 50 | > 1000 | > 1000 | < 50 | > 10000 | > 10000 |
| CCc1cc2c(cc1C(F)F)N(c1nn(C3CCN(C(=O)CN4Cc5cc6c(cc5C4)C(=O)N(C4CCC(=O)NC4=O)C6=O)CC3)c3c1CN(C(C)=O)CC3)CCC2 (stereo not drawn) [CP-012, 6-(2-(4-(5-acetyl-3-(7-(difluoromethyl)-6-ethyl-3,4-dihydroquinolin-1(2H)-yl)-4,5,6,7-tetrahydro-1H-pyrazolo[4,3-c]pyridin-1-yl)piperidin-1-yl)-2-oxoethyl)-2-(2,6-dioxopiperidin-3-yl)-6,7-dihydropyrrolo[3,4-f]isoindole-1,3(2H,5H)-dione] | > 90 | < 10 | < 10 | > 70 | < 1000 | < 100 |
| CC(=O)N1CCc2c(c(N3CCCc4cc(-c5ccc(F)cc5)c(C(F)F)cc43)nn2C2CCN(C(=O)CN3Cc4cc5c(cc4C3)C(=O)N(C3CCC(=O)NC3=O)C5=O)CC2)C1 (stereo not drawn) [CP-023, 6-(2-(4-(5-acetyl-3-(7-(difluoromethyl)-6-(4-fluorophenyl)-3,4-dihydroquinolin-1(2H)-yl)-4,5,6,7-tetrahydro-1H-pyrazolo[4,3-c]pyridin-1-yl)piperidin-1-yl)-2-oxoethyl)-2-(2,6-dioxopiperidin-3-yl)-6,7-dihydropyrrolo[3,4-f]isoindole-1,3(2H,5H)-dione] | > 90 | < 10 | < 10 | > 70 | < 1000 | < 100 |

Next, values leading:

| Dmax (CBP) [%] | DC50 (CBP) [nM] | DC50 (P300) [nM] | Dmax (P300) [%] | IC50 (22Rv1 cells) [nM] | IC50 (HL60) [nM] | Structure (SMILES) |
| --- | --- | --- | --- | --- | --- | --- |
| < 50 | > 1000 | > 1000 | < 50 | > 10000 | > 10000 | CC(=O)N1CCc2c(ccc3c2CCCN3c2nn(C3CCN(C(=O)CN4Cc5cc6c(cc5C4)C(=O)N(C4CCC(=O)NC4=O)C6=O)CC3)c3c2CN(C(C)=O)CC3)C1 (stereo not drawn) [CP-081, 6-(2-(4-(5-acetyl-3-(3-acetyl-1,3,4,8,9,10-hexahydro-3,7-phenanthrolin-7(2H)-yl)-4,5,6,7-tetrahydro-1H-pyrazolo[4,3-c]pyridin-1-yl)piperidin-1-yl)-2-oxoethyl)-2-(2,6-dioxopiperidin-3-yl)-6,7-dihydropyrrolo[3,4-f]isoindole-1,3(2H,5H)-dione] |
| < 50 | > 1000 | > 1000 | < 50 | > 10000 | > 10000 | CC(=O)N1CCc2c(c(N3CCCc4cc5c(cc43)C(C)(C)CCC5)nn2C2CCN(C(=O)CN3Cc4cc5c(cc4C3)C(=O)N(C3CCC(=O)NC3=O)C5=O)CC2)C1 (stereo not drawn) [CP-083, 6-(2-(4-(5-acetyl-3-(9,9-dimethyl-3,4,6,7,8,9-hexahydrobenzo[g]quinolin-1(2H)-yl)-4,5,6,7-tetrahydro-1H-pyrazolo[4,3-c]pyridin-1-yl)piperidin-1-yl)-2-oxoethyl)-2-(2,6-dioxopiperidin-3-yl)-6,7-dihydropyrrolo[3,4-f]isoindole-1,3(2H,5H)-dione] |
| > 90 | < 100 | < 100 | > 70 | < 1000 | < 100 | CC(=O)N1CCc2c(c(N3CCCc4cc5c(cc43)C(C)CCC5)nn2C2CCN(C(=O)CN3Cc4cc5c(cc4C3)C(=O)N(C3CCC(=O)NC3=O)C5=O)CC2)C1 (stereo not drawn) [CP-079, 6-(2-(4-(5-acetyl-3-(9-methyl-3,4,6,7,8,9-hexahydrobenzo[g]quinolin-1(2H)-yl)-4,5,6,7-tetrahydro-1H-pyrazolo[4,3-c]pyridin-1-yl)piperidin-1-yl)-2-oxoethyl)-2-(2,6-dioxopiperidin-3-yl)-6,7-dihydropyrrolo[3,4-f]isoindole-1,3(2H,5H)-dione] |
| > 90 | < 10 | < 10 | > 70 | > 10000 | < 1000 | CC(=O)N1CCc2c(c(-c3cccc4ccccc34)nn2C2CCN(C(=O)CN3CCc4cc5c(cc4C3)C(=O)N(C3CCC(=O)NC3=O)C5=O)CC2)C1 (stereo not drawn) [CP-076, 6-(2-(4-(5-acetyl-3-(naphthalen-1-yl)-4,5,6,7-tetrahydro-1H-pyrazolo[4,3-c]pyridin-1-yl)piperidin-1-yl)-2-oxoethyl)-2-(2,6-dioxopiperidin-3-yl)-5,6,7,8-tetrahydro-1H-pyrrolo[3,4-g]isoquinoline-1,3(2H)-dione] |
| < 50 | > 1000 | > 1000 | < 50 | > 10000 | > 10000 | Cc1noc(C)c1-c1ccc2c(c1)nc([C@@H]1CCCC(=O)N1c1ccc(F)c(F)c1)n2C1CCN(C(=O)CCCN2Cc3cc4c(cc3C2)C(=O)N(C2CCC(=O)NC2=O)C4=O)CC1 (stereo partly drawn) [CP-066, 6-(4-(4-(2-((S)-1-(3,4-difluorophenyl)-6-oxopiperidin-2-yl)-5-(3,5-dimethylisoxazol-4-yl)-1H-benzo[d]imidazol-1-yl)piperidin-1-yl)-4-oxobutyl)-2-(2,6-dioxopiperidin-3-yl)-6,7-dihydropyrrolo[3,4-f]isoindole-1,3(2H,5H)-dione] |
